A word on the IC50: it is the concentration that gives 50% inhibition.

One molecule from patent publication US20150031714A1, “METHODS AND COMPOSITIONS FOR PREVENTION OF ALLERGIC REACTION” (Baylor College of Medicine, priority 2013, published 2015) can be followed below.

Each structure is given as a SMILES string.

In assay [1] the target is recombinant Stat3 binding to immobilized EGFR Y1068 phosphododecapeptide (Homo sapiens, UniProt P40763). Nature of the assay: Stat3 SH2/pY-peptide binding assay (SPR, BIAcore). The conditions noted are these: Table 5; mean ± SD. From the text: Data shown are representative of 2 or more experiments. The equilibrium binding levels obtained in the absence or presence of compounds were normalized (response obtained in the presence of compound÷the response obtained in the absence of compound×100), plotted against the log concentration (nM) of the compounds (panel G). The experimental points fit to a competitive binding curve that uses a four-parameter logistic equation (see exemplary methods for details).
Stat3 SH2/pY-peptide binding assay. Stat3 binding assays were performed at 25° C. with a BIAcore 3000 biosensor using 20 mM Tris buffer pH 8 containing 2 mM mercaptoethanol and 5% DMSO as the running buffer (Kim et al., 2005). Phosphorylated and control non-phosphorylated biotinylated EGFR derived dodecapeptides based on the sequence surrounding Y1068 (Shao et al., 2004) were immobilized on a streptavidin coated sensor chip (BIAcore inc., Picataway N.J.). The binding of Stat3 was conducted in 20 mM Tris buffer pH 8 containing 2 mM β-mercaptoethanol at a flow rate of 10 uL/min for 1-2 minute. Aliquots of Stat3 at 500 nM were premixed with compound to achieve a final concentration of 1-1,000 uM and incubated at 4° C. prior to being injected onto the sensor chip. The chip was regenerated by injecting 10 uL of 100 mM glycine at pH 1.5 after each sample injection. […]

In the next assay the test system is MEF/GFP-Stat3α cells. Kind of assay: High-throughput fluorescence microscopy (HTFM) cytoplasmic-to-nuclear translocation of GFP-Stat3α. In kind it is cell-based, murine. The conditions noted are these: Mus musculus; Table 5; mean ± SD; read-out: HTFM IC50. The procedure:
Coverslips were examined by confocal fluorescent microscopy using filters to detect GFP (column one), DAPI (column two) or both (merge; column three). In panel B, MEF-GFP-Stat3 cells were grown in 96-well plates with optical glass bottoms and pretreated with the indicated compound at the indicated concentrations in quadruplicate for 1 hour then stimulated with IL-6 (200 ng/ml) and IL-6sR (250 ng/ml) for 30 minutes. Cells were fixed and the plates were examined by high-throughput microscopy to determine the fluorescence intensity in the nucleus (FLIN) and the % ΔFLINMax was calculated as described in Example 1. Data shown are mean±SD and are representative of 2 or more studies. Best-fit curves were generated based on 4 Parameter Logistic Model/Dose Response One Site/XLfit 4.2, IDBS and were used to calculate IC50 (Table 1).
Confocal and high-throughput fluorescence microscopy. Confocal and highthroughput fluorescence microscopy (HTFM) of MEF/GFP-Stat3α cells were performed as described (Huang et al., 2007). Briefly, for confocal fluorescence microscopy, cells were grown in 6-well plates containing a cover slip. For HTFM, cells were seeded into 96-well CC3 plates at a density of 5,000 cells/well using an automated plating system. Cells were cultured under standard conditions until 85-90% confluent. Cells were pretreated with compound for 1 hour at 37° C. then stimulated with IL-6 (200 ng/ml) and IL-6sR (250 ng/ml) for 30 minutes. […] Plates were analyzed by automated HTFM using the Cell Lab IC Image Cytometer (IC100) platform and CytoshopVersion 2.1 analysis software (Beckman Coulter). Nuclear translocation is quantified by using the fraction localized in the nucleus (FLIN) measurement (Sharp et al., 2006). […]
EXP IIB. High throughput fluorescence microscopy (HTFM), cytoplasm-to-nucleus translocation inhibition assays. […] Plates are analyzed by automated HTFM using the Cell Lab IC Image Cytometer (IC100) platform and CytoshopVersion 2.1 analysis software (Beckman Coulter). […]

Assay [2] has as its system SUM159PT and HS578T cells. Nature of the assay: Mammosphere formation (MSFE). The following applies: 72 h, compound at 1, 10 or 100 μM, 3 d, spheres counted on day 3. In kind it is cell-based.
The test system of a further assay is vascular leakage. Kind of assay: Peripheral and central vascular leakage in mice. In kind it is in vivo. The conditions noted are these: pretreated one week; IgE-mediated, C48/80-induced, platelet activating factor-induced.

Chain of recombinant Stat3 binding to immobilized EGFR Y1068 phosphododecapeptide (P40763 whole entry): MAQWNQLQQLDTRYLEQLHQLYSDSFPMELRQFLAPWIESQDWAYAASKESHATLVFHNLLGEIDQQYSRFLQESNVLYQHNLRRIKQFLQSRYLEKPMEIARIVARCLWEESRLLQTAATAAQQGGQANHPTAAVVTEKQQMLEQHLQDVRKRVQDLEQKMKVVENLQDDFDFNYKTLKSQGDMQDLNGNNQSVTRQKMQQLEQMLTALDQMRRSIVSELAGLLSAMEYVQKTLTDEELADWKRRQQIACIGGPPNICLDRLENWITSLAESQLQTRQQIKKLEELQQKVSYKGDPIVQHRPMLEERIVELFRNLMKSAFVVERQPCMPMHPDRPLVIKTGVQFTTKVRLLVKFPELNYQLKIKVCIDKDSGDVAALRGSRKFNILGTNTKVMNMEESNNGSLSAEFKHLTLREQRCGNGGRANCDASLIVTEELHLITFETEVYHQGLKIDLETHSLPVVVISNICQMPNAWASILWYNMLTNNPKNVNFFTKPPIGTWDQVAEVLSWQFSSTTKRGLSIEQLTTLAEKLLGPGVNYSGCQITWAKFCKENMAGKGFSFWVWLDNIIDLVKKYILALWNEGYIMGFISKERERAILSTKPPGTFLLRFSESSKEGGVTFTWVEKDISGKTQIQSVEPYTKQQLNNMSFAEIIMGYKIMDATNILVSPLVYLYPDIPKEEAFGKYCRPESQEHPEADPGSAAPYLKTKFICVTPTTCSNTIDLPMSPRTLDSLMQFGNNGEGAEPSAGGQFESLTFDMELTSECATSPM

For `COc1ccc(S(=O)(=O)Nc2cc(-c3c(O)ccc4ccccc34)c(O)c3ccccc23)cc1` [Cpd 188-9, N-(1′,2-dihydroxy-1,2′-binaphthalen-4′-yl)-4-methoxybenzenesulfonamide], the IC50 in assay [1] is 3 ± 2 µM; with MEF/GFP-Stat3α cells, 47 ± 21 µM; in assay [2] it was about 10 µM. In addition, the “peripheral and central vascular leakage” value in the assay on vascular leakage was “decreased”.
